Laboratory results published in patent publication US20050240034A1, “Artemisinin-based peroxide compounds as broad spectrum anti-infective agents” (priority 2002, published 2005).
In brackets after ≈: the same amount, converted by molar mass. Where two headings read alike, the source gives them in different places.

Experiments:
[1] = system: P. falciparum Sierra Leone D6 clone; assay: WHO/TDR in vitro antimalarial screen (uptake of radiolabeled nucleic acid precursor), D6 clone; format: cell-based, Plasmodium falciparum; conditions: mefloquine-resistant, chloroquine-sensitive, second value in brackets not explained
Description: (§1) All test compounds are solubilized in DMSO and diluted 400 fold (to rule out a DMSO effect) in culture medium with plasma for a starting concentration of at least 12,500 ng/mL. Drugs are subsequently diluted five fold using the Cetus Pro/Pette system utilizing a range of concentrations from 0.8 ng/mL to 12,500 ng/mL. Fifty percent inhibitory concentrations are reported in ng/mL.
(§2) The D6 African P. falciparum clone is sensitive to chloroquine, pyrimethamine and sulfadoxine but resistant to mefloquine. The W2 Indochina P. falciparum clone is resistant to chloroquine, pyrimethamine and sulfadoxine but sensitive to mefloquine. The K1 P. falciparum is a resistant strain, where NF54 P. falciparum is a sensitive strain.

[2] = system: P. falciparum Indochina W2 clone; assay: WHO/TDR in vitro antimalarial screen, W2 clone; format: cell-based, Plasmodium falciparum; conditions: chloroquine-resistant, mefloquine-sensitive, second value in brackets not explained
Description: as §1, §2

P. falciparum K1 = assay: WHO/TDR in vitro antimalarial screen, K1; format: cell-based, Plasmodium falciparum; conditions: K1, chloroquine-resistant
Description: as §1, with “[…]. All” for “All”
as §2

P. falciparum NF54 = assay: WHO/TDR in vitro antimalarial screen, NF54; format: cell-based, Plasmodium falciparum; conditions: NF54, chloroquine-sensitive, second value in brackets not explained
Description: as §1, with “[…]. All” for “All”
as §2

P. berghei N = assay: in vivo Peter's 4-day antimalarial test in mice, P. berghei N; parameters: P. berghei N P.O. ED50 / P. berghei N P.O. ED90: unit not given beside the values; conditions: mice, 4-day test; for ED50: Plasmodium berghei, 96 h, unit inferred; for P. berghei N P.O. ED90 / P. berghei N S.C. ED90 / P. berghei N P.O. ED50 / P. berghei N S.C. ED50: unit not given
Description: (§3) The parasitemia is determined on the day following the last treatment—day 4 to determine qualitatively the presence and degree of activity at the screening dose.

P. yoelli ssp. NS = assay: in vivo 4-day antimalarial test in mice, P. yoelli ssp. NS; conditions: subcutaneous
Description: as §3

[3] = system: P. falciparum D6 (Sierra Leone); assay: antimalarial parasite LDH (pLDH) assay, D6; format: cell-based, Plasmodium falciparum; conditions: for IC50: pLDH assay, Table 5, read-out: P. falciparum (D6 Clone) IC50; for P. falciparum (IC50) D6: LDH assay, Table 6; for S. I. (D6): Selectivity Index = IC50 (Vero cells)/IC50 (P. falciparum)
Description: (§4) The Thad Cochran National Center for Natural Products Research (University of Mississippi) in vitro antimalarial screen was conducted using an enzyme assay for detection of P. falciparum (see procedure below). This assay is based on the observation that lactate dehydrogenase (LDH) of P. falciparum is distinguishable from host LDH activity. P. falciparum LDH rapidly uses 3-acetyl pyridine nicotinamide adenine dinucleotide (APAD) as a coenzyme in the biotransformation of […].^38 The same process is carried out in human red blood cells at a very slow rate.
(§5) The “Antimalarial parasite LDH assay” is currently being conducted according the following procedure: prepare a suspension of RBC with a 2% parasitemia and 2% hematocrit in malaria complete medium. Dispense 200 μl aliquots of this suspension into each well of a 96 well microtiter plate. Add 10 μl volumes of the drugs to be tested in duplicate to the appropriate wells. Place the plates into humidified chamber and flush the cultures with a gas mixture consisting of 90% N2, 5% O2, and 5% CO2. Transfer the chamber containing the plates to an incubator, and incubate for 48 hours at 37° C. After 48 hours add 100 μl aliquots of the Malstat™ reagent to each well of a new 96-well microtiter plate Resuspend the cultures from the assay plate by mixing each well up and down several times. Remove 20 μl from each well of the resuspend culture and add to the plate containing the Malstat™ reagent. Incubate the plates at room temperature for 30 minutes. After 30 minutes, add to each well 20 μl of the 1:1 mixture of the NBT/PES solution (2 mg/ml and 0.1 mg/ml, respectively). Incubate the plates in the dark for 1 hour. Add 100 μl of 5% acetic acid solution to stop the reaction. The plate is then read at an endpoint of approximately 650 nm. The dose response curves are generated using Microsoft Excel.
(§6) Antimalarial activity of the analogues was determined in vitro on chloroquine sensitive (D)6, Sierra Leone) and resistant (W2, IndoChina) strains of Plasmodium falciparum. The 96 well microplate assay is based on evaluation of the effect of the compounds on the growth of asynchronous cultures of P. falciparum, determined by the assay of parasite lactate dehydrogenase (pLDH) activity.^28 The appropriate dilutions of the compounds were prepared in DMSO or RPMI-1640 medium and added to the cultures of P. falciparum (2% hematocrit, 2% parasitemia) set up in clear flat bottomed 96 well plates. The plates were placed into the humidified chamber and flushed with a gas mixture of 90% N2, 5% CO2 & 5% O2. The cultures were incubated at 37° C. for 48 hours. Growth of the parasite in each well was determined by pLDH assay using Malstat® reagent. The medium and RBC controls were also set-up in each plate. The standard antimalarial agents, chloroquine and artemisinin, were used as the positive controls while DMSO was tested as the negative control.

[4] = system: P. falciparum W2 (IndoChina); assay: antimalarial parasite LDH (pLDH) assay, W2; format: cell-based, Plasmodium falciparum; conditions: for IC50: pLDH assay, Table 5, read-out: P. falciparum (W2 Clone) IC50; for P. falciparum (IC50) W2: LDH assay, Table 6; for S. I. (W2): Selectivity Index = IC50 (Vero cells)/IC50 (P. falciparum)
Description: as §4, §5
as §6, with “plate.” for “plate. The standard antimalarial agents, chloroquine and artemisinin, were used as the positive controls while DMSO was tested as the negative control.”

[5] = system: Leishmania donovani promastigotes expressing firefly luciferase; assay: antileishmanial luciferase assay on transgenic promastigotes; format: cell-based; conditions: Table 1 (artemisinin analogues); NA = not active up to 125 μg/ml; read-out: Antileishmanial activity IC50
Description: Antileishmanial activity of the compounds was tested on a transgenic cell line of Leishmania donovani promastigotes expressing firefly luciferase.^29a In a 96 well microplate assay, compounds with appropriate dilution were added to the leishmania promastigotes culture (2×10^6 cell/mL). The plates were incubated at 26° C. for 72 hours and growth of leishmania promastigotes was determined by luciferase assay with Steady Glo® reagent (Promega, USA). Pentamidine and Amphotericin B were used as standard antileishmanial agents. The analogues were simultaneously tested for cytotoxicity on VERO cells (monkey kidney fibroblast) by Neutral Red assay.^29b IC50 values for the compounds were computed from the growth inhibition curve.

OC(c1cc(C(F)(F)F)nc2c(C(F)(F)F)cccc12)C1CCCCN1 (stereo not shown) [Mefloquine, mefloquine, reference compound]
IC50 ([1]; Plasmodium falciparum): 0.0456 µg/mL (≈ 0.12 µM)
IC50 ([2]; Plasmodium falciparum): 0.0341 µg/mL (≈ 0.09 µM)
IC50 (P. falciparum K1; Plasmodium falciparum): 0.0203 µg/mL (≈ 0.0538 µM)
IC50 (P. falciparum NF54; Plasmodium falciparum): 0.0354 µg/mL (≈ 0.0935 µM)
ED50 (P. berghei N; oral, read-out: P. berghei N P.O. ED50): 1.1 mg/kg
ED50 (P. berghei N; sc, subcutaneous, read-out: P. berghei N S.C. ED50): 1.5 mg/kg
P. berghei N P.O. ED90 (P. berghei N; oral): 2.3
P. berghei N S.C. ED90 (P. berghei N; subcutaneous): 3.8
ED50 (P. yoelli ssp. NS; Plasmodium yoelii, sc, unit inferred, read-out: P. yoelli ssp. NS (S.C.) ED50): 2.3 mg/kg
IC50 ([3]; Plasmodium falciparum, D6): 0.17 µM
IC50 ([4]; Plasmodium falciparum, W2): 0.195 µM

CCN(CC)CCCC(C)Nc1ccnc2cc(Cl)ccc12 (stereo not shown) [Chloroquine, chloroquine, reference compound]
P. falciparum (IC50) D6 [1]: 7.58 ng/mL
P. falciparum (IC50) W2 [2]: 118.04 ng/mL
P. falciparum (IC50) K1 (P. falciparum K1): 0.07901 µg/mL
P. falciparum (IC50) NF54 (P. falciparum NF54): 7.36 ng/mL
P. berghei N P.O. ED50 (P. berghei N; oral): 1.7
P. berghei N P.O. ED90 (P. berghei N; oral): 3.1
P. berghei N S.C. ED50 (P. berghei N; subcutaneous): 1.5
P. berghei N S.C. ED90 (P. berghei N; subcutaneous): 3
P. yoelli ssp. NS (S.C.) ED50 (P. yoelli ssp. NS; unit inferred): 1.6 mg/kg
P. yoelli ssp. NS (S.C.) ED90 (P. yoelli ssp. NS; unit inferred): 28 mg/kg
IC50 [3]: 0.0165 µM
IC50 [4]: 0.233 µM

(+)-Octahydro-3,6α-dimethyl-3,12-epoxy-9β-(3′-(m-trifluoromethylphenyl)propyl)-12H-pyrano[4,3j]-1,2-benzodioxepin [Compound 38]
P. falciparum (IC50) D6 [1]: 8.48 ng/mL
P. falciparum (IC50) W2 [2]: 30.32 ng/mL
P. falciparum (IC50) K1 (P. falciparum K1): 0.012 µg/mL
P. falciparum (IC50) NF54 (P. falciparum NF54): 35.60 (30.76) ng/mL
P. berghei N P.O. ED50 (P. berghei N; oral): 1.25 (0.5-2.3)
P. berghei N P.O. ED90 (P. berghei N; oral): 4.4 (1.3-6.2)
P. berghei N S.C. ED50 (P. berghei N; subcutaneous): 0.4 (0.2-1.2)
P. berghei N S.C. ED90 (P. berghei N; subcutaneous): 0.75 (0.4-2.1)
P. yoelli ssp. NS (S.C.) ED50 (P. yoelli ssp. NS; unit not given): 0.60 (0.3-0.9)
P. yoelli ssp. NS (S.C.) ED90 (P. yoelli ssp. NS; unit not given): 1.00 (0.5-1.5)
P. falciparum (IC50) D6 [3]: 0.0087 µg/mL
S. I. (D6) ([3]; D6): >55.0
IC50 [3]: 0.0278 µM
P. falciparum (IC50) W2 [4]: 0.011 µg/mL
S. I. (W2) ([4]; W2): >43
IC50 [4]: 0.0113 µM
IC50 [5]: 1.9 µM

(+)-Octahydro3,6α-dimethyl-3,12-epoxy-9β-(3′-(3,5-difluorophenyl)propyl)-12H-pyrano[4,3j]-1,2-benzodioxepin [Compound 41]
P. falciparum (IC50) W2 [2]: 6.70 ng/mL
P. berghei N P.O. ED50 (P. berghei N; oral): <10
P. berghei N P.O. ED90 (P. berghei N; oral): <10
P. berghei N S.C. ED50 (P. berghei N; subcutaneous): <10
P. berghei N S.C. ED90 (P. berghei N; subcutaneous): <10
P. falciparum (IC50) D6 [3]: 0.0038 µg/mL
S. I. (D6) ([3]; D6): >125
P. falciparum (IC50) W2 [4]: 0.0023 µg/mL
S. I. (W2) ([4]; W2): >207

CC1CCC2C(CCCc3ccc(Cl)cc3)COC3OC4(C)CCC1C32OO4 (stereo not shown) [Compound 11]
P. falciparum (IC50) D6 [1]: 1.9 (1.9) ng/mL
P. falciparum (IC50) W2 [2]: 3.0 (2.2) ng/mL
P. berghei N P.O. ED50 (P. berghei N; oral): 1.0
P. berghei N P.O. ED90 (P. berghei N; oral): 2.1
P. berghei N S.C. ED50 (P. berghei N; subcutaneous): 0.7
P. berghei N S.C. ED90 (P. berghei N; subcutaneous): 1.2
P. yoelli ssp. NS (S.C.) ED50 (P. yoelli ssp. NS; unit inferred): 0.6 mg/kg
P. yoelli ssp. NS (S.C.) ED90 (P. yoelli ssp. NS; unit inferred): 1 mg/kg

(+)-Octahydro-3,6α-dimethyl-3,12-epoxy-9β-(3′-(3,5-bistrifluoromethylphenyl)propyl)-12H-pyrano[4,3j]-1,2-benzodioxepin [Compound 40]
P. falciparum (IC50) W2 [2]: 7.11 ng/mL
P. berghei N P.O. ED50 (P. berghei N; oral): <10
P. berghei N P.O. ED90 (P. berghei N; oral): <10
P. berghei N S.C. ED50 (P. berghei N; subcutaneous): <10
P. berghei N S.C. ED90 (P. berghei N; subcutaneous): <10
P. falciparum (IC50) D6 [3]: 0.012 µg/mL
S. I. (D6) ([3]; D6): >40
P. falciparum (IC50) W2 [4]: 0.0095 µg/mL
S. I. (W2) ([4]; W2): >50

quinine [reference compound]
P. falciparum (IC50) K1 (P. falciparum K1): 0.0996 µg/mL
P. falciparum (IC50) NF54 (P. falciparum NF54): 9.08 ng/mL
P. berghei N P.O. ED50 (P. berghei N; oral): 71
P. berghei N P.O. ED90 (P. berghei N; oral): 118
P. berghei N S.C. ED50 (P. berghei N; subcutaneous): 25
P. berghei N S.C. ED90 (P. berghei N; subcutaneous): 190
P. yoelli ssp. NS (S.C.) ED50 (P. yoelli ssp. NS; unit inferred): 128 mg/kg

(+)-Octahydro-3,6α-dimethyl-3,12-epoxy-9β-(3′-(m-fluorophenyl)propyl)-12H-pyrano[4,3j]-1,2-benzodioxepin [Compound 37]
P. falciparum (IC50) D6 [1]: 8.28 ng/mL
P. falciparum (IC50) W2 [2]: 26.83 ng/mL
P. falciparum (IC50) K1 (P. falciparum K1): 0.01156 µg/mL
P. falciparum (IC50) NF54 (P. falciparum NF54): 41.76 (27.33) ng/mL
P. berghei N P.O. ED50 (P. berghei N; oral): 0.9 (0.38-1.9)
P. berghei N P.O. ED90 (P. berghei N; oral): 3.4 (1.45-7.5)
P. berghei N S.C. ED50 (P. berghei N; subcutaneous): 0.46 (0.19-1.1)
P. berghei N S.C. ED90 (P. berghei N; subcutaneous): 0.85 (0.36-2.3)
P. yoelli ssp. NS (S.C.) ED50 (P. yoelli ssp. NS; unit not given): 0.58 (0.45-1.0)
P. yoelli ssp. NS (S.C.) ED90 (P. yoelli ssp. NS; unit not given): 1.00 (0.8-1.8)
P. falciparum (IC50) D6 [3]: 0.011 µg/mL
S. I. (D6) ([3]; D6): >43.0
P. falciparum (IC50) W2 [4]: 0.012 µg/mL
S. I. (W2) ([4]; W2): >40
IC50 [5]: 88.3 µM
